The target in experiment [1] is T1, Sphingosine kinase 2 (Homo sapiens, UniProt Q9NRA0).
T1 sequence (Q9NRA0 whole entry): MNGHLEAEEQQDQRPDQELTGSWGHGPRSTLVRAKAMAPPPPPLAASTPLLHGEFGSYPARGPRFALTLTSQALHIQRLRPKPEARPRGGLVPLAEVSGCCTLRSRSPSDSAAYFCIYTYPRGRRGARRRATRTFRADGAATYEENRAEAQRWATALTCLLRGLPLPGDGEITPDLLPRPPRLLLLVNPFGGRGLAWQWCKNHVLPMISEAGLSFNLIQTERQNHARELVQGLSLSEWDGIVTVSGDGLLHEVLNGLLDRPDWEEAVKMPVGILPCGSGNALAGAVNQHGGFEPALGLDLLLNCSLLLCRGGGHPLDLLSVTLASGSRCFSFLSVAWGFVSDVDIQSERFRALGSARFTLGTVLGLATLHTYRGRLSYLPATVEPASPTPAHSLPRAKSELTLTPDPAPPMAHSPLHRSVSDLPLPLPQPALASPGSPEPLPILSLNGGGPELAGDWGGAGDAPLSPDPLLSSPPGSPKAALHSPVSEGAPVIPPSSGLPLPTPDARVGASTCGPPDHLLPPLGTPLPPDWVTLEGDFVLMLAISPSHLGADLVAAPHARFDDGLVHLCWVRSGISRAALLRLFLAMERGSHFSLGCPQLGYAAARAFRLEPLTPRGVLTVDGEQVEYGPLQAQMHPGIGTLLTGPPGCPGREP
As to the kind of experiment: Inhibition of SphK2 (unknown origin).

Experiment [2] has as its target T1, Sphingosine kinase 2. As to the kind of experiment: Inhibition of SphK2 (unknown origin) using sphingosine and [gamma-32P]ATP as substrate.
For experiment [3], the target named is T1, Sphingosine kinase 2. In words: Competitive inhibition of V5-His-tagged human SphK2 expressed in HEK293 cells assessed as S1P production using sphingosine and [gamma-32P]ATP as substrate by thin layer chromatography. The class given is cell-based.
The species named for a further experiment is Homo sapiens. As to the kind of experiment: Selectivity ratio for SphK1 (unknown origin) over SphK2 (unknown origin).

What is called Ki is the equilibrium dissociation constant of an inhibitor or competing ligand from its target. A higher Ki goes with lower affinity. At Sphingosine kinase 2 [1], `CCCCCCCCc1ccc(CC[C@@](N)(CO)COC)cc1` displayed a Ki of 27 µM.
In turn, `CCCCOc1ccc(CC/C=C2\SC(=O)N(CCN)C2=O)cc1` came in with an inhibition constant Ki on Sphingosine kinase 2 [2] of 4.3 µM. That is a single-digit micromolar value.
The term IC50 denotes the concentration at which inhibition is half-maximal. As to `CCCCCc1ccc(/C=C/[C@H](O)[C@@H](CO)NC)cc1`, the 50% inhibitory concentration (IC50) on Sphingosine kinase 2 [3] came to 10 µM.
For `CCCCCCCCc1ccc(CCN2CCCC(O)C2)cc1` (stereo unspecified), the Selectivity ratio in the experiment listed under Homo sapiens turned out to be 6.1.
For the compound `CCCCCCCCCCCCC/C=C/[C@@H](O)[C@H](CO)N(C)C` [DIMETHYLSPINGOSINE], the Ki on Sphingosine kinase 2 [1] turned out to be 12 µM. In other words, the double-digit micromolar range.
Turning to `CCCCCCCCc1ccc(CCN2CCC(O)CC2)cc1`, the Selectivity ratio in the experiment listed under Homo sapiens was found to be 15.

(Values after ChEMBL document CHEMBL3286280, “Importance of sphingosine kinase (SphK) as a target in developing cancer therapeutics and recent developments in the synthesis of novel SphK inhibitors” (J Med Chem, 2014).)
